Test results as given in the NIST ThermoML archive (doi:10.1016/j.jct.2014.05.016).
Numbers after ± are expanded uncertainties.

Test: xn = mol fraction of the nth substance listed
Settings: 100 kPa, Liquid; for viscosity: Concentric cylinders viscometry; for mass density: Vibrating tube method

C[n+]1ccn(CCO)c1.F[B-](F)(F)F [1-(2-hydroxyethyl)-3-methylimidazolium tetrafluoroborate] + CCCC[n+]1ccccc1.F[B-](F)(F)F
Settings	mass density [kg/m3]	viscosity [mPa·s]
293.15 K, x1 = 0.1003	1229 ± 1.1	218.7 ± 18
293.15 K, x1 = 0.2001	–	205.9 ± 17
293.15 K, x1 = 0.2004	1242.4 ± 1.1	–
293.15 K, x1 = 0.2997	–	193.9 ± 16
293.15 K, x1 = 0.3003	1255.9 ± 1.1	–
293.15 K, x1 = 0.3999	1269.7 ± 1.1	184.2 ± 15
293.15 K, x1 = 0.4996	–	176.1 ± 14
293.15 K, x1 = 0.5007	1284.2 ± 1.1	–
293.15 K, x1 = 0.5991	1298.7 ± 1.1	169.5 ± 14
293.15 K, x1 = 0.6954	1313.4 ± 1.1	–
293.15 K, x1 = 0.6997	–	164.2 ± 13
293.15 K, x1 = 0.7997	1329.9 ± 1.1	–
293.15 K, x1 = 0.7999	–	159.9 ± 13
293.15 K, x1 = 0.8996	1346.1 ± 1.1	–
293.15 K, x1 = 0.8998	–	155.4 ± 13
293.15 K, x1 = 1	1362.4 ± 1.1	153.6 ± 12
298.15 K, x1 = 0.1003	1225.5 ± 1.1	160.4 ± 13
298.15 K, x1 = 0.2001	–	151.5 ± 12
298.15 K, x1 = 0.2004	1238.9 ± 1.1	–
298.15 K, x1 = 0.2997	–	143.4 ± 12
298.15 K, x1 = 0.3003	1252.3 ± 1.1	–
298.15 K, x1 = 0.3999	1266.1 ± 1.1	136.7 ± 11
298.15 K, x1 = 0.4996	–	131.1 ± 11
298.15 K, x1 = 0.5007	1280.6 ± 1.1	–
298.15 K, x1 = 0.5991	1295.1 ± 1.1	126.4 ± 10
298.15 K, x1 = 0.6954	1309.8 ± 1.1	–
298.15 K, x1 = 0.6997	–	122.7 ± 9.9
298.15 K, x1 = 0.7997	1326.1 ± 1.1	–
298.15 K, x1 = 0.7999	–	119.5 ± 9.7
298.15 K, x1 = 0.8996	1342.3 ± 1.1	–
298.15 K, x1 = 0.8998	–	116 ± 9.4
298.15 K, x1 = 1	1358.7 ± 1.1	115.1 ± 9.3
303.15 K, x1 = 0.1003	1222 ± 1.1	120.3 ± 9.7
303.15 K, x1 = 0.2001	–	114.2 ± 9.2
303.15 K, x1 = 0.2004	1235.4 ± 1.1	–
303.15 K, x1 = 0.2997	–	108.5 ± 8.8
303.15 K, x1 = 0.3003	1248.8 ± 1.1	–
303.15 K, x1 = 0.3999	1262.5 ± 1.1	104 ± 8.4
303.15 K, x1 = 0.4996	–	99.88 ± 8.1
303.15 K, x1 = 0.5007	1277 ± 1.1	–
303.15 K, x1 = 0.5991	1291.4 ± 1.1	96.68 ± 7.8
303.15 K, x1 = 0.6954	1306.1 ± 1.1	–
303.15 K, x1 = 0.6997	–	94.02 ± 7.6
303.15 K, x1 = 0.7997	1322.4 ± 1.1	–
303.15 K, x1 = 0.7999	–	91.38 ± 7.4
303.15 K, x1 = 0.8996	1338.6 ± 1.1	–
303.15 K, x1 = 0.8998	–	88.75 ± 7.1
303.15 K, x1 = 1	1354.8 ± 1.1	87.98 ± 7.1
308.15 K, x1 = 0.1003	1218.7 ± 1.1	92.07 ± 7.4
308.15 K, x1 = 0.2001	–	87.89 ± 7.1
308.15 K, x1 = 0.2004	1231.9 ± 1.1	–
308.15 K, x1 = 0.2997	–	83.89 ± 6.8
308.15 K, x1 = 0.3003	1245.3 ± 1.1	–
308.15 K, x1 = 0.3999	1259 ± 1.1	80.56 ± 6.5
308.15 K, x1 = 0.4996	–	77.78 ± 6.2
308.15 K, x1 = 0.5007	1273.4 ± 1.1	–
308.15 K, x1 = 0.5991	1287.9 ± 1.1	75.21 ± 6
308.15 K, x1 = 0.6954	1302.4 ± 1.1	–
308.15 K, x1 = 0.6997	–	73.36 ± 5.9
308.15 K, x1 = 0.7997	1318.8 ± 1.1	–
308.15 K, x1 = 0.7999	–	71.46 ± 5.7
308.15 K, x1 = 0.8996	1334.9 ± 1.1	–
308.15 K, x1 = 0.8998	–	69.32 ± 5.6
308.15 K, x1 = 1	1351.2 ± 1.1	68.59 ± 5.5
313.15 K, x1 = 0.1003	1215.2 ± 1.1	71.96 ± 5.8
313.15 K, x1 = 0.2001	–	69.99 ± 5.6
313.15 K, x1 = 0.2004	1228.4 ± 1.1	–
313.15 K, x1 = 0.2997	–	66.1 ± 5.3
313.15 K, x1 = 0.3003	1241.8 ± 1.1	–
313.15 K, x1 = 0.3999	1255.5 ± 1.1	63.68 ± 5.1
313.15 K, x1 = 0.4996	–	61.56 ± 4.9
313.15 K, x1 = 0.5007	1269.9 ± 1.1	–
313.15 K, x1 = 0.5991	1284.4 ± 1.1	59.69 ± 4.8
313.15 K, x1 = 0.6954	1298.8 ± 1.1	–
313.15 K, x1 = 0.6997	–	58.34 ± 4.7
313.15 K, x1 = 0.7997	1315.1 ± 1.1	–
313.15 K, x1 = 0.7999	–	56.8 ± 4.5
313.15 K, x1 = 0.8996	1331.2 ± 1.1	–
313.15 K, x1 = 0.8998	–	55.18 ± 4.4
313.15 K, x1 = 1	1347.4 ± 1.1	54.81 ± 4.4
318.15 K, x1 = 0.1003	1211.8 ± 1.1	57.27 ± 4.6
318.15 K, x1 = 0.2001	–	55.12 ± 4.4
318.15 K, x1 = 0.2004	1225 ± 1.1	–
318.15 K, x1 = 0.2997	–	52.99 ± 4.2
318.15 K, x1 = 0.3003	1238.3 ± 1.1	–
318.15 K, x1 = 0.3999	1252 ± 1.1	51.21 ± 4.1
318.15 K, x1 = 0.4996	–	49.63 ± 4
318.15 K, x1 = 0.5007	1266.3 ± 1.1	–
318.15 K, x1 = 0.5991	1280.7 ± 1.1	48.25 ± 3.9
318.15 K, x1 = 0.6954	1295.2 ± 1.1	–
318.15 K, x1 = 0.6997	–	47.11 ± 3.8
318.15 K, x1 = 0.7997	1311.4 ± 1.1	–
318.15 K, x1 = 0.7999	–	45.99 ± 3.7
318.15 K, x1 = 0.8996	1327.5 ± 1.1	–
318.15 K, x1 = 0.8998	–	44.69 ± 3.6
318.15 K, x1 = 1	1343.7 ± 1.1	44.44 ± 3.6
323.15 K, x1 = 0.1003	1208.4 ± 1.1	46.31 ± 3.7
323.15 K, x1 = 0.2001	–	44.75 ± 3.6
323.15 K, x1 = 0.2004	1221.5 ± 1.1	–
323.15 K, x1 = 0.2997	–	43.16 ± 3.5
323.15 K, x1 = 0.3003	1234.8 ± 1.1	–
323.15 K, x1 = 0.3999	1248.5 ± 1.1	41.83 ± 3.4
323.15 K, x1 = 0.4996	–	40.75 ± 3.3
323.15 K, x1 = 0.5007	1262.7 ± 1.1	–
323.15 K, x1 = 0.5991	1277.1 ± 1.1	39.57 ± 3.2
323.15 K, x1 = 0.6954	1291.8 ± 1.1	–
323.15 K, x1 = 0.6997	–	38.63 ± 3.1
323.15 K, x1 = 0.7997	1307.8 ± 1.1	–
323.15 K, x1 = 0.7999	–	37.9 ± 3
323.15 K, x1 = 0.8996	1323.8 ± 1.1	–
323.15 K, x1 = 0.8998	–	36.75 ± 2.9
323.15 K, x1 = 1	1340.1 ± 1.1	36.5 ± 2.9
328.15 K, x1 = 0.1003	1205.1 ± 1.1	38.01 ± 3.1
328.15 K, x1 = 0.2001	–	36.85 ± 3
328.15 K, x1 = 0.2004	1218.1 ± 1.1	–
328.15 K, x1 = 0.2997	–	35.7 ± 2.9
328.15 K, x1 = 0.3003	1231.3 ± 1.1	–
328.15 K, x1 = 0.3999	1245 ± 1.1	34.64 ± 2.8
328.15 K, x1 = 0.4996	–	33.74 ± 2.7
328.15 K, x1 = 0.5007	1259.2 ± 1.1	–
328.15 K, x1 = 0.5991	1273.5 ± 1.1	32.9 ± 2.6
328.15 K, x1 = 0.6954	1288 ± 1.1	–
328.15 K, x1 = 0.6997	–	32.19 ± 2.6
328.15 K, x1 = 0.7997	1304.1 ± 1.1	–
328.15 K, x1 = 0.7999	–	31.58 ± 2.5
328.15 K, x1 = 0.8996	1320.2 ± 1.1	–
328.15 K, x1 = 0.8998	–	30.65 ± 2.5
328.15 K, x1 = 1	1336.4 ± 1.1	30.46 ± 2.4
333.15 K, x1 = 0.1003	1201.7 ± 1.1	31.61 ± 2.5
333.15 K, x1 = 0.2001	–	30.75 ± 2.5
333.15 K, x1 = 0.2004	1214.6 ± 1.1	–
333.15 K, x1 = 0.2997	–	29.88 ± 2.4
333.15 K, x1 = 0.3003	1227.9 ± 1.1	–
333.15 K, x1 = 0.3999	1241.5 ± 1.1	29.05 ± 2.3
333.15 K, x1 = 0.4996	–	28.35 ± 2.3
333.15 K, x1 = 0.5007	1255.7 ± 1.1	–
333.15 K, x1 = 0.5991	1270 ± 1.1	27.7 ± 2.2
333.15 K, x1 = 0.6954	1284.4 ± 1.1	–
333.15 K, x1 = 0.6997	–	27.13 ± 2.2
333.15 K, x1 = 0.7997	1300.5 ± 1.1	–
333.15 K, x1 = 0.7999	–	26.61 ± 2.1
333.15 K, x1 = 0.8996	1316.6 ± 1.1	–
333.15 K, x1 = 0.8998	–	25.87 ± 2.1
333.15 K, x1 = 1	1332.8 ± 1.1	25.73 ± 2.1
338.15 K, x1 = 0.1003	1198.3 ± 1.1	26.6 ± 2.1
338.15 K, x1 = 0.2001	–	25.96 ± 2.1
338.15 K, x1 = 0.2004	1211.2 ± 1.1	–
338.15 K, x1 = 0.2997	–	25.28 ± 2
338.15 K, x1 = 0.3003	1224.4 ± 1.1	–
338.15 K, x1 = 0.3999	1238 ± 1.1	24.64 ± 2
338.15 K, x1 = 0.4996	–	24.09 ± 1.9
338.15 K, x1 = 0.5007	1252.2 ± 1.1	–
338.15 K, x1 = 0.5991	1266.5 ± 1.1	23.58 ± 1.9
338.15 K, x1 = 0.6954	1280.9 ± 1.1	–
338.15 K, x1 = 0.6997	–	23.11 ± 1.9
338.15 K, x1 = 0.7997	1297 ± 1.1	–
338.15 K, x1 = 0.7999	–	22.69 ± 1.8
338.15 K, x1 = 0.8996	1312.9 ± 1.1	–
338.15 K, x1 = 0.8998	–	22.08 ± 1.8
338.15 K, x1 = 1	1329.2 ± 1.1	21.98 ± 1.8
343.15 K, x1 = 0.1003	1194.9 ± 1.1	22.64 ± 1.8
343.15 K, x1 = 0.2001	–	22.15 ± 1.8
343.15 K, x1 = 0.2004	1207.8 ± 1.1	–
343.15 K, x1 = 0.2997	–	21.6 ± 1.7
343.15 K, x1 = 0.3003	1221 ± 1.1	–
343.15 K, x1 = 0.3999	1234.6 ± 1.1	21.12 ± 1.7
343.15 K, x1 = 0.4996	–	20.68 ± 1.7
343.15 K, x1 = 0.5007	1248.7 ± 1.1	–
343.15 K, x1 = 0.5991	1263 ± 1.1	20.28 ± 1.6
343.15 K, x1 = 0.6954	1277.3 ± 1.1	–
343.15 K, x1 = 0.6997	–	19.9 ± 1.6
343.15 K, x1 = 0.7997	1293.4 ± 1.1	–
343.15 K, x1 = 0.7999	–	19.56 ± 1.6
343.15 K, x1 = 0.8996	1309.3 ± 1.1	–
343.15 K, x1 = 0.8998	–	19.05 ± 1.5
343.15 K, x1 = 1	1325.5 ± 1.1	18.95 ± 1.5
